In patent US10034886B2, “GLP-1 receptor modulators” (Celgene International II SÀRL, priority 2014, dated 2018):

target: T1, GLP-1R (Homo sapiens, UniProt P43220); assay: EC20 GLP-1(9-36) PAM cAMP assay: dose response of compound in the presence of fixed concentration of GLP-1(9-36); format: cell-based; settings: GLP-1R CRE-bla CHO-K1 cells, compound dose response with fixed concentration of GLP-1(9-36), read-out: EC20 GLP-1(9-36) PAM EC50
T1 construct: host or cells: GLP-1R CRE-bla CHO-K1 cells
T1 sequence (P43220 24-463): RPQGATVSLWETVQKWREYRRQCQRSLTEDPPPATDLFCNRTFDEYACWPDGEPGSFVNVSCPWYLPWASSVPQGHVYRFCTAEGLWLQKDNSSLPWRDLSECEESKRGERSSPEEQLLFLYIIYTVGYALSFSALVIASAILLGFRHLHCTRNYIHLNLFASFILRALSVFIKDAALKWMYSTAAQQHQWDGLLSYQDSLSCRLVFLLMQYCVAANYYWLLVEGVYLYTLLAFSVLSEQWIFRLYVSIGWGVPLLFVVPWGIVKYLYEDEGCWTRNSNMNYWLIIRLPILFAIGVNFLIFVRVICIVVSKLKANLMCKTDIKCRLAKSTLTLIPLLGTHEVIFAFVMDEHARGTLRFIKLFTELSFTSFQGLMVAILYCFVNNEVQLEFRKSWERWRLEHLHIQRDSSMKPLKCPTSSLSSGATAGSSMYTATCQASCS
T1 sequence (P01275 100-127 partner limits assumed): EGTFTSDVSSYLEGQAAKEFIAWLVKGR
Method in brief: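 Positive allosteric modulation read as cAMP accumulation: compound titrations (12 points) combined with an EC20 level of GLP-1(9-36) on CHO-K1 GLP-1R CRE-bla cells, IBMX present, 30 min, 37 °C, pH 7.4 buffer. Luminescence converted to cAMP via standards; non-linear fit gave EC50 and Emax.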

EC50 | Compound
< 0.8 µM | CCCCc1ccc(-c2ccc(-c3cnc(-c4ccc(C[C@H](NC(=O)c5ccc(C(C)(C)C)s5)C(=O)N5CC(C(=O)O)C5)cc4)nc3)cc2)cc1 [Compound 1394]
5 to 10 µM | CC(C)(C)OC(=O)N1CCC(C2CCN(c3cnc(-c4ccc(C[C@H](NC(=O)c5ccc(C(C)(C)C)s5)C(=O)N5CC(C(=O)O)C5)cc4)nc3)CC2)CC1 [Compound 1415]
< 0.8 µM | CC1CCC(C2CCN(c3cnc(-c4ccc(C[C@H](NC(=O)c5ccc(C(C)(C)C)s5)C(=O)N5CC(C(=O)O)C5)cc4)nc3)CC2)CC1 (stereo partly drawn) [Compound 1427]
< 0.8 µM | CC[C@H]1CC[C@H](c2ccc(-c3cnc(-c4ccc(C[C@H](NC(=O)c5ccc(C(C)(C)C)s5)C(=O)NCC(=O)O)cc4)nc3)cc2)CC1 [Compound 1323]
< 0.8 µM | CC[C@H]1CC[C@H](c2ccc(-c3cnc(-c4ccc(C[C@H](NC(=O)c5ccc(C6(C#N)CC6)s5)C(=O)N5CC(C(=O)O)C5)cc4)nc3)cc2)CC1 [Compound 1340]
2.5 to 5 µM | CCCc1ccc(C2CN(c3cnc(-c4ccc(C[C@H](NC(=O)c5ccc(C(C)(C)C)s5)C(=O)N5CC(C(=O)O)C5)cc4)nc3)C2)cc1 [Compound 1502]
2.5 to 5 µM | CC[C@H]1CC[C@H](c2ccc(-c3ccc(-c4ccc(C[C@H](NC(=O)c5ccc(C(C)(C)C)s5)C(=O)O)cc4)cn3)cc2)CC1 [Compound 1335]
0.8 to 2.5 µM | CC(C)(C)c1ccc(C(=O)N[C@@H](Cc2ccc(-c3ncc(N4CCC(c5ccccc5Cl)CC4)cn3)cc2)C(=O)N2CC(C(=O)O)C2)s1 [Compound 1480]
< 0.8 µM | CCC[C@H]1CC[C@H](C2CCN(c3cnc(-c4ccc(C[C@H](NC(=O)c5ccc(C(C)(C)C)s5)C(=O)N5CC[C@H](C(=O)O)C5)cc4)nc3)CC2)CC1 [Compound 1416]
0.8 to 2.5 µM | CCCc1ccc(C(=O)N[C@@H](Cc2ccc(-c3ncc(-c4ccc([C@H]5CC[C@H](CC)CC5)cc4)cn3)cc2)C(=O)O)cc1 [Compound 1372]
< 0.8 µM | CCCc1ccc(-c2ccc(-c3cnc(-c4ccc(C[C@H](NC(=O)c5ccc(C(C)C)s5)C(=O)N5CC(C(=O)O)C5)cc4)nc3)c(F)c2)cc1 [Compound 1398]
0.8 to 2.5 µM | CC(C)(C)c1ccc(C(=O)N[C@@H](Cc2ccc(-c3ncc(N4CCC(c5cccc(Cl)c5)CC4)cn3)cc2)C(=O)N2CC(C(=O)O)C2)s1 [Compound 1479]
< 0.8 µM | CCC[C@H]1CC[C@H](C2CCN(c3cnc(-c4ccc(C[C@H](NC(=O)c5ccc(C(C)(C)C)s5)C(=O)N5CC(c6nn[nH]n6)C5)cc4)nc3)CC2)CC1 [Compound 1442]
< 0.8 µM | CCC[C@H]1CC[C@H](C2CCN(c3cnc(-c4ccc(C[C@H](NC(=O)c5ccc(C(C)C)cc5)C(=O)N5CC(C(=O)O)C5)cc4)nc3)CC2)CC1 [Compound 1536]
2.5 to 5 µM | CCCCc1ccc(CC2CN(c3cnc(-c4ccc(CC(NC(=O)c5ccc(C(C)(C)C)s5)C(=O)N5CC(C(=O)O)C5)cc4)nc3)C2)cc1 (stereo not drawn) [Compound 1510]
< 0.8 µM | CC[C@H]1CC[C@@H](c2ccc(-c3cnc(-c4ccc(C[C@H](NC(=O)c5ccc(C(C)(C)C)s5)C(=O)O)cc4)nc3)c(F)c2)CC1 [Compound 1362]
< 0.8 µM | CCC[C@H]1CC[C@H](C2CCN(c3cnc(-c4ccc(CC(NC(=O)c5ccc(C(C)(C)C)s5)C(=O)NS(=O)(=O)CCNC(=O)OC(C)(C)C)cc4)nc3)CC2)CC1 (stereo partly drawn) [Compound 1548]
5 to 10 µM | CCCCCCOC1CN(c2cnc(-c3ccc(C[C@H](NC(=O)c4ccc(C(C)(C)C)s4)C(=O)N[C@H](C)C(=O)O)cc3)nc2)C1 [Compound 1273]

same assay, conditions: dose response of compound in presence of fixed concentration of GLP-1(9-36), GLP-1R CRE-bla CHO-K1 cells, read-out: EC20 GLP-1(9-36) PAM EC50

EC50 | Compound
0.8 to 2.5 µM | CCCCCCCOc1ccc(-c2cnc(-c3ccc(C[C@H](NC(=O)c4ccc(C(C)(C)C)s4)C(=O)NC4(C(=O)O)CCCC4)cc3)nc2)cc1 [Compound 395]
0.8 to 2.5 µM | CCCCCCOc1ccc(-c2cnc(-c3ccc(C[C@H](NC(=O)c4ccc(C(C)(C)C)s4)C(=O)N4CC(C(=O)O)C4)cc3)nc2)cc1 [Compound 777]
< 0.8 µM | CCCCCCCOc1ccc(-c2cnc(-c3ccc(C[C@H](NC(=O)c4ccc(C(C)(C)C)cc4)C(=O)N[C@@H](CC(=O)NCC(N)=O)C(=O)O)cc3)nc2)cc1 [Compound 482]
0.8 to 2.5 µM | CCCCCCCOc1ccc(-c2cnc(-c3ccc(C[C@H](NC(=O)c4ccc(C(C)(C)C)s4)C(=O)N[C@@H](CCCN)C(=O)O)cc3)nc2)cc1 [Compound 393]
5 to 10 µM | CC(C)Oc1cc(-c2cnc(-c3ccc(C[C@H](NC(=O)c4ccc(C(C)(C)C)s4)C(=O)N[C@H](C)C(=O)O)cc3)nc2)ccc1OC(F)(F)F [Compound 1013]
0.8 to 2.5 µM | CC(C)(C)c1ccc(COc2ccc(-c3cnc(-c4ccc(C[C@H](NC(=O)c5ccc(C(C)(C)C)cc5)C(=O)NCCC(=O)O)cc4)nc3)cc2)cc1 [Compound 713]
0.8 to 2.5 µM | CCCCCCCOc1ccc(-c2cnc(-c3ccc(C[C@H](NC(=O)c4ccc(C(C)C)s4)C(=O)N[C@H](C)C(=O)O)cc3)nc2)cc1 [Compound 841]
0.8 to 2.5 µM | CCCCCCCOc1ccc(-c2cnc(-c3ccc(C[C@H](NC(=O)c4ccc(C(C)(C)C)cc4)C(=O)N[C@H](CC)C(=O)O)cc3)nc2)cc1 [Compound 498]
< 0.8 µM | CCCCCCCOc1ccc(-c2cnc(-c3ccc(C[C@H](NC(=O)c4ccc(C(C)(C)C)s4)C(=O)N[C@@H](CC(=O)O)C(=O)N4CCCCC4)cc3)nc2)cc1 [Compound 529]
< 0.8 µM | CCCCCCCOc1ccc(-c2cnc(-c3ccc(C[C@H](NC(=O)c4ccc(C(C)(C)C)cc4)C(=O)N[C@H](CC(=O)NC)C(=O)O)cc3)nc2)cc1 [Compound 591]
2.5 to 5 µM | CCCCCCCOc1ccc(-c2cnc(-c3ccc(C[C@H](NC(=O)c4ccc(CCCC)cc4)C(=O)N[C@H](C)C(=O)O)cc3)nc2)cc1 [Compound 819]
< 0.8 µM | CC(C)CCCCOc1ccc(-c2cnc(-c3ccc(C[C@H](NC(=O)c4ccc(C(C)(C)C)s4)C(=O)N[C@H](C)C(=O)O)cc3)nc2)cc1 [Compound 770]
0.8 to 2.5 µM | CCCCCCCOc1ccc(-c2cnc(-c3ccc(C[C@H](NC(=O)c4ccc(C(C)(C)C)cc4)C(=O)N[C@@H](CCCN)C(=O)O)cc3)nc2)cc1 [Compound 469]
< 0.8 µM | CCCCCCCOc1ccc(-c2cnc(-c3ccc(C[C@H](NC(=O)c4ccc(C(C)(C)C)cc4)C(=O)NC(C(=O)O)c4cccnc4)cc3)nc2)cc1 (stereo partly drawn) [Compound 468]
2.5 to 5 µM | CC(C)(C)c1ccc(C(=O)N[C@@H](Cc2ccc(-c3ncc(-c4ccc(C5CCOCC5)cc4)cn3)cc2)C(=O)N2CC(C(=O)O)C2)s1 [Compound 1180]
< 0.8 µM | CCCCCCCOc1ccc(-c2cnc(-c3ccc(C[C@H](NC(=O)c4ccc(C(C)(C)C)cc4)C(=O)N4CC(OC)CC4C(=O)O)cc3)nc2)cc1 (stereo partly drawn) [Compound 624]
5 to 10 µM | CCCCc1noc(-c2cnc(-c3ccc(C[C@H](NC(=O)c4ccc(C(C)(C)C)cc4)C(=O)NCCC(=O)O)cc3)nc2)n1 [Compound 743]

EC50 | Compound
0.8 to 2.5 µM | CCCCCCCOc1ccc(-c2cnc(-c3ccc(C[C@H](NC(=O)c4ccc(C(C)(C)C)s4)C(=O)N[C@@H](Cc4ccccn4)C(=O)O)cc3)nc2)cc1 [Compound 628]
2.5 to 5 µM | CCCCCC(=O)c1ccc(-c2cnc(-c3ccc(C[C@H](NC(=O)c4ccc(C(C)(C)C)cc4)C(=O)NCCC(=O)O)cc3)nc2)cc1 [Compound 690]
< 0.8 µM | CCCCCCCOc1ccc(-c2cnc(-c3ccc(C[C@H](NC(=O)c4ccc(C(C)(C)C)s4)C(=O)NC(Cc4c[nH]c5ncccc45)C(=O)O)cc3)nc2)cc1 (stereo partly drawn) [Compound 626]
2.5 to 5 µM | CCCCCCCOc1ccc(-c2cnc(-c3ccc(C[C@H](NC(=O)c4ccc(C(C)(C)C)s4)C(=O)N(C)CC4CCN(CCOC)CC4)cc3)nc2)cc1 [Compound 971]
5 to 10 µM | CC(C)(C)c1ccc(C(=O)N[C@@H](Cc2ccc(-c3ncc(-c4ccc(OC5CC5)cc4)cn3)cc2)C(=O)NC(C(=O)O)C(O)c2ccccc2)s1 (stereo partly drawn) [Compound 930]
2.5 to 5 µM | CCCCCCCOc1ccc(-c2cnc(-c3ccc(C[C@H](NC(=O)c4ccc(C(C)(C)C)s4)C(=O)N[C@@H](C(=O)O)[C@H](C)O)cc3)nc2)cc1 [Compound 664]
2.5 to 5 µM | CCCCc1ccc(-c2cnc(-c3ccc(C[C@H](NC(=O)c4ccc(C(C)(C)C)cc4)C(=O)NCCC(=O)O)cc3)nc2)cc1 [Compound 677]
0.8 to 2.5 µM | CCCCCCCOc1ccc(-c2cnc(-c3ccc(C[C@@H](NC(=O)c4ccc(C(C)(C)C)cc4)C(=O)NCC(=O)O)cc3)nc2)cc1 [Compound 380]
0.8 to 2.5 µM | CCCCCCc1ccc(-c2cnc(-c3ccc(C[C@H](NC(=O)c4ccc(C(C)(C)C)cc4)C(=O)NCCC(=O)O)cc3)nc2)cc1 [Compound 678]
< 0.8 µM | CCCCCCCOc1ccc(-c2cnc(-c3ccc(C[C@H](NC(=O)c4ccc(C(C)(C)C)cc4)C(=O)N4CC(O)CC(C(=O)O)C4)cc3)nc2)cc1 (stereo partly drawn) [Compound 662]
5 to 10 µM | CCCCCCCOc1ccc(-c2cnc(-c3ccc(C[C@H](NC(=O)c4ccc(CCC)cc4)C(=O)N[C@H](C)C(=O)O)cc3)nc2)cc1 [Compound 830]
0.8 to 2.5 µM | CCCCCCCOc1ccc(-c2cnc(-c3ccc(C[C@H](NC(=O)/C=C/c4ccc(OC)cc4)C(=O)N4CC(C(=O)O)C4)cc3)nc2)cc1 [Compound 1103]
2.5 to 5 µM | CCCCCCCOc1ccc(-c2cnc(-c3ccc(C[C@H](NC(=O)c4ccc(C(C)(C)C)cc4OC)C(=O)NC(C(=O)O)C(O)c4ccccc4)cc3)nc2)cc1 (stereo partly drawn) [Compound 952]
0.8 to 2.5 µM | CC(C)CCCOc1ccc(-c2cnc(-c3ccc(C[C@H](NC(=O)c4ccc(C(C)(C)C)cc4)C(=O)N[C@H](C)C(=O)O)cc3)nc2)cc1 [Compound 793]
< 0.8 µM | CCCCCCCOc1ccc(-c2cnc(-c3ccc(C[C@H](NC(=O)c4ccc(C(C)(C)C)s4)C(=O)N[C@@H](Cn4cccn4)C(=O)O)cc3)nc2)cc1 [Compound 594]
< 0.8 µM | CCCCCCCOc1ccc(-c2cnc(-c3ccc(C[C@H](NC(=O)c4ccc(C(C)(C)C)s4)C(=O)N4CCC(C(=O)O)CC4)cc3)nc2)cc1 [Compound 448]
